Experimental data as given in patent publication US20210227854A1, “USE OF D-RIBOSE TO ENHANCE ADAPTATION TO PHYSICAL STRESS” (Bioenergy Life Science, Inc., priority 2014, published 2021).

Key:
[1] = Blood urea nitrogen (BUN) around three days of high-intensity exercise; assay type: in vivo, human; conditions: for Change in BUN levels: Unfit Subgroup, p=0.88
Protocol: A high-intensity exercise protocol was designed as a double-blind, crossover study to assess the influence of D-Ribose adaptation to physical stress. Specifically, D-Ribose and a control (Dextrose) were administered on separate subjects at a dosage of ten grams per day (10 g/day). A variety of physiological parameters were measured in the subjects administered D-Ribose (DR) supplementation (i.e., the DR subjects) versus the subjects administered Dextrose (DEX) supplementation (i.e., the DEX subjects). To test D-ribose for adaptation, the twenty-six (26) adult subjects were further divided into two subgroups based on their fitness level (i.e., peak oxygen uptake (VO2 max) results. The first subgroup comprised subjects with higher VO2 max results (i.e., the “Fit Subgroup”) and the second subgroup comprised subjects with lower VO2 max results (i.e., the “Unfit Subgroup”). The Unfit Subgroup consisted of six (6) females and seven (7) males. The average age of the Unfit Subgroup was 27.7±3.4 years and the average peak VO2 of the Unfit Subgroup was 39.9±4.1 mL/kg/min. The Fit Subgroup consisted of four (4) females and nine (9) males. The average age of the Fit Subgroup was 27.6±3.5 year and the average peak VO2 of the Fit Subgroup was 52.2±4.3 mL/kg/min. […] Physiologic parameters were measured and hydration was provided to the subjects during the exercise session. […] Blood glucose was measured at all of the above time points except at twenty-four (24) hours post-exercise. Creatine kinase and BUN levels were measured at the pre-exercise (−10 min.) point during the three (3) days of exercise and twenty-four (24) hours post-exercise following the third (last) exercise session. Heart rate was recorded using a Polar HR monitor. Blood glucose levels were measured using a Bayer glucose monitor. Blood lactate levels were measured by an AccuSport Lactate Analyzer. Creatine kinase and BUN were measured utilizing an Abaxis Piccolo analyzer. Power data from the time trial performance test was assessed with the Sports Medicine Industries (SMI) software package.

[2] = Two-minute power test (time trial) on cycle ergometer after sixty-minute high-intensity exercise session, double-blind crossover study; assay type: in vivo, human; conditions: for Absolute mean power output change / Relative mean power output change: Table 4, mean (±SD); for Mean Power (W/kg BW): difference between day 1 and day 3, 10 g/day, mean ± SD
Protocol: A high-intensity exercise protocol was designed as a double-blind, crossover study to assess the influence of D-Ribose adaptation to physical stress. Specifically, D-Ribose and a control (Dextrose) were administered on separate subjects at a dosage of ten grams per day (10 g/day). A variety of physiological parameters were measured in the subjects administered D-Ribose (DR) supplementation (i.e., the DR subjects) versus the subjects administered Dextrose (DEX) supplementation (i.e., the DEX subjects).
The subjects consisted of twenty-six (26) healthy individual (10 females, 16 males). Each subject was randomly categorized as a DR subject or a DEX subject for the administration of supplementation. Furthermore, each subject was required to maintain his or her normal diet during the study, as well as performing his or her normal daily activities without performing any additional separate exercise sessions not part of the study protocol.
To test D-ribose for adaptation, the twenty-six (26) adult subjects were further divided into two subgroups based on their fitness level (i.e., peak oxygen uptake (VO2 max) results. The first subgroup comprised subjects with higher VO2 max results (i.e., the “Fit Subgroup”) and the second subgroup comprised subjects with lower VO2 max results (i.e., the “Unfit Subgroup”). The Unfit Subgroup consisted of six (6) females and seven (7) males. The average age of the Unfit Subgroup was 27.7±3.4 years and the average peak VO2 of the Unfit Subgroup was 39.9±4.1 mL/kg/min. The Fit Subgroup consisted of four (4) females and nine (9) males. The average age of the Fit Subgroup was 27.6±3.5 year and the average peak VO2 of the Fit Subgroup was 52.2±4.3 mL/kg/min.
On the load days (i.e., the two (2) days prior to the exercise sessions), DR subjects consumed five grams (5 g) of DR mixed with either their food or in a self-selected beverage with lunch and an additional five grams (5 g) with dinner (i.e., between three to eight hours apart), while DEX subjects consumed five grams (5 g) of DEX mixed with either their food or in a self-selected beverage with lunch and an additional five grams (5 g) with dinner (i.e., between three to eight hours apart).
On the exercise session days (i.e., three (3) days following the load days), DR subjects ingested a standardized pre-exercise snack containing five grams (5 g) of DR at two (2) hours before the exercise session and five grams (5 g) of DR following the exercise session but before leaving the laboratory (i.e., within one hour following the exercise session), while DEX subjects ingested a standardized pre-exercise snack containing five grams (5 g) of DEX at two (2) hours before the exercise session and five grams (5 g) of DEX following the exercise session but before leaving the laboratory (i.e., within one hour following the exercise session). For both DR subjects and DEX subjects, the standardized snacks were self-selected but were based on the subjects' normal dietary habits. The snacks were consistent from day to day and consisted of one hundred seventy grams (170 g) of yogurt and two granola bars, along with the designated supplement. Subjects were asked to record their diets so that there would be consistency throughout the testing period. Following an exercise session, each subject ingested the final daily dose of five grams (5 g) before leaving the laboratory. Subjects also ingested two hundred milliliters (200 ml) of water at twenty (20) and forty (40) minutes of exercise to minimize the effects of dehydration, which can occur during periods of high-intensity exercise.
Each subject was randomly assigned to be a DR subject (for administration of DR supplementation) or a DEX subject (for administration of DEX supplementation). Apart from the supplementation provided to and consumed by the subject, the treatment protocols were identical. The specific treatment protocol (i.e., administration of supplementation and exercise sessions) is detailed in Table 1 below: […]

| Structure (SMILES) | Change in BUN levels [1] | Average change in absolute peak power from Day 1 to Day 3 ([2]; Fit Subgroup) | Average change in relative peak power from Day 1 to Day 3 ([2]; Fit Subgroup) | Absolute mean power output change ([2]; Fit Subgroup) | Relative mean power output change ([2]; Fit Subgroup) | Mean Power (W/kg BW) ([2]; Fit Subgroup) | Average change in absolute peak power from Day 1 to Day 3 ([2]; Unfit Subgroup) | Average change in relative peak power from Day 1 to Day 3 ([2]; Unfit Subgroup) | Absolute mean power output change ([2]; Unfit Subgroup) | Relative mean power output change ([2]; Unfit Subgroup) | Mean Power (W/kg BW) ([2]; Unfit Subgroup) | Change in BUN levels, DR versus DEX ([1]; Fit Subgroup) | Relative and absolute mean power outputs, DR versus DEX treatments ([2]; Fit Subgroup) | Difference between DR and DEX in the change of absolute mean power ([2]; Unfit Subgroup, p=0.01) | Improvement in relative mean power over DEX ([2]; Unfit Subgroup, p=0.04) |
| --- | --- | --- | --- | --- | --- | --- | --- | --- | --- | --- | --- | --- | --- | --- | --- |
| O=C[C@H](O)[C@@H](O)[C@H](O)[C@H](O)CO [DEX, Dextrose, reference compound] | 1.08±2.56 | 3.31±25.8 W | −0.02+0.37 W/kg BW | 8.2 (27.7) W | 0.07 (0.33) W/kg BW | 0.07 ± 0.33 W/kg BW | −10.8±33.0 W | −0.09+0.51 W/kg BW | −8.9 (22.4) W | −0.09 (0.29) W/kg BW | −0.09 ± 0.31 W/kg BW | – | – | – | – |
| O=C[C@H](O)[C@H](O)[C@H](O)CO [DR, D-Ribose] | 0.93±2.66 | 6.2±28.6 W | 0.15±0.41 W/kg BW | 2.3 (17.1) W | 0.08 (0.39) W/kg BW | 0.08 ± 0.31 W/kg BW | 26.8±40.8 W | 0.33+0.52 W/kg BW | 13.2 (24.2) W | 0.17 (0.32) W/kg BW | 0.20 ± 0.32 W/kg BW | No differences | not different | 245% | 288% |
